This note sets out measurements from ChEMBL document CHEMBL1201862, “PubChem BioAssay data set” (2004).

What is called CC50 is the concentration giving 50% cytotoxicity. For orientation: IC50 means the point on the concentration scale where inhibition reaches its midpoint. By AC50 is commonly meant the midpoint of the concentration-response curve, whichever way the signal moves.

Assay [1] in a line: THP-1 cell cytotoxicity, dose response, cytotoxicity control for non-replicating M. tuberculosis project (AID 489025). Type of assay: functional.
Another assay deals with T1, Exodeoxyribonuclease V (Escherichia coli (strain K12), UniProt P04993+P07648+P08394).
T1 sequence (P04993 whole entry): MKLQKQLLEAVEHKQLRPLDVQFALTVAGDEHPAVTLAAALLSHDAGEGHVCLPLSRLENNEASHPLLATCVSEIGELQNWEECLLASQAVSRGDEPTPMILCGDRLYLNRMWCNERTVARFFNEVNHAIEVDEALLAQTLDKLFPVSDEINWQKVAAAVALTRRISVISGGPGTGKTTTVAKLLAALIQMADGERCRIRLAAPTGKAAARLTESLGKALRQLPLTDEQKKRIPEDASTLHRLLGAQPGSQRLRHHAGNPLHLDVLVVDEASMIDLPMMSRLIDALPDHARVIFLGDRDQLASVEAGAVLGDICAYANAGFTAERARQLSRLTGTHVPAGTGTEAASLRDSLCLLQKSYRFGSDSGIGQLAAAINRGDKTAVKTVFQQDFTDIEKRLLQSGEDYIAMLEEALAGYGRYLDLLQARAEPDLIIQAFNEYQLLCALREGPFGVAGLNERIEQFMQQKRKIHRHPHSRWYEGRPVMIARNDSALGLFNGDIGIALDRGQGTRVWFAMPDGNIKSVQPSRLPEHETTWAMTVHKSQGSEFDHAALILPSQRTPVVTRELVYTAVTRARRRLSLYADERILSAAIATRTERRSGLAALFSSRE
T1 sequence (P07648 whole entry): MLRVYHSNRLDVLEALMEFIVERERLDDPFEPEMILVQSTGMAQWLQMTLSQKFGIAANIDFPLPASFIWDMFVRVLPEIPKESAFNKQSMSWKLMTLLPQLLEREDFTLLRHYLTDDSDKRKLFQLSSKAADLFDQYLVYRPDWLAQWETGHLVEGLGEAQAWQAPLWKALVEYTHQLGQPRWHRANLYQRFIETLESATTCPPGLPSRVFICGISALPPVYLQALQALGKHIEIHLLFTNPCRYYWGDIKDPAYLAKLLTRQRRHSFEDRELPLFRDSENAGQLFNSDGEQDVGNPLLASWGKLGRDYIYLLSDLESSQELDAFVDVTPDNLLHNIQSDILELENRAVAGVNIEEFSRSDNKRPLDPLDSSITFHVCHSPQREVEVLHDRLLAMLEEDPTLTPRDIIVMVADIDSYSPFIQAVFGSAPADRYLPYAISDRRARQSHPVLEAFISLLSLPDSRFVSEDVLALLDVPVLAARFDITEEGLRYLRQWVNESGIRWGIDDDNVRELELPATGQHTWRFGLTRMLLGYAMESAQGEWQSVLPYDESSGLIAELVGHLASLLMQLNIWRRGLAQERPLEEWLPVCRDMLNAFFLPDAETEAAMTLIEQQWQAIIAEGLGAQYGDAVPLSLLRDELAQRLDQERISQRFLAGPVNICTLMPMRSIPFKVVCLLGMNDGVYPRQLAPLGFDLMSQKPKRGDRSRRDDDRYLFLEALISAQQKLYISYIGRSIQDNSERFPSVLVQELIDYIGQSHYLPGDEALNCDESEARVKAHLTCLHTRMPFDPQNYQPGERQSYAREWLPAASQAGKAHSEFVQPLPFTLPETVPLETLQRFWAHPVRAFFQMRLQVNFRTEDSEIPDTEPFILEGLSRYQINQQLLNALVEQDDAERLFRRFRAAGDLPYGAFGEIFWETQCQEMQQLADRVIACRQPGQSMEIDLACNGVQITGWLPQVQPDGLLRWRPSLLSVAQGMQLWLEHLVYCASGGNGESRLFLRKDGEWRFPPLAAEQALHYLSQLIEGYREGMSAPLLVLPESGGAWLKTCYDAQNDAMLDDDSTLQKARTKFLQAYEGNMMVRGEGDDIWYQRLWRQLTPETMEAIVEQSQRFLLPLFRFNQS
T1 sequence (P08394 whole entry): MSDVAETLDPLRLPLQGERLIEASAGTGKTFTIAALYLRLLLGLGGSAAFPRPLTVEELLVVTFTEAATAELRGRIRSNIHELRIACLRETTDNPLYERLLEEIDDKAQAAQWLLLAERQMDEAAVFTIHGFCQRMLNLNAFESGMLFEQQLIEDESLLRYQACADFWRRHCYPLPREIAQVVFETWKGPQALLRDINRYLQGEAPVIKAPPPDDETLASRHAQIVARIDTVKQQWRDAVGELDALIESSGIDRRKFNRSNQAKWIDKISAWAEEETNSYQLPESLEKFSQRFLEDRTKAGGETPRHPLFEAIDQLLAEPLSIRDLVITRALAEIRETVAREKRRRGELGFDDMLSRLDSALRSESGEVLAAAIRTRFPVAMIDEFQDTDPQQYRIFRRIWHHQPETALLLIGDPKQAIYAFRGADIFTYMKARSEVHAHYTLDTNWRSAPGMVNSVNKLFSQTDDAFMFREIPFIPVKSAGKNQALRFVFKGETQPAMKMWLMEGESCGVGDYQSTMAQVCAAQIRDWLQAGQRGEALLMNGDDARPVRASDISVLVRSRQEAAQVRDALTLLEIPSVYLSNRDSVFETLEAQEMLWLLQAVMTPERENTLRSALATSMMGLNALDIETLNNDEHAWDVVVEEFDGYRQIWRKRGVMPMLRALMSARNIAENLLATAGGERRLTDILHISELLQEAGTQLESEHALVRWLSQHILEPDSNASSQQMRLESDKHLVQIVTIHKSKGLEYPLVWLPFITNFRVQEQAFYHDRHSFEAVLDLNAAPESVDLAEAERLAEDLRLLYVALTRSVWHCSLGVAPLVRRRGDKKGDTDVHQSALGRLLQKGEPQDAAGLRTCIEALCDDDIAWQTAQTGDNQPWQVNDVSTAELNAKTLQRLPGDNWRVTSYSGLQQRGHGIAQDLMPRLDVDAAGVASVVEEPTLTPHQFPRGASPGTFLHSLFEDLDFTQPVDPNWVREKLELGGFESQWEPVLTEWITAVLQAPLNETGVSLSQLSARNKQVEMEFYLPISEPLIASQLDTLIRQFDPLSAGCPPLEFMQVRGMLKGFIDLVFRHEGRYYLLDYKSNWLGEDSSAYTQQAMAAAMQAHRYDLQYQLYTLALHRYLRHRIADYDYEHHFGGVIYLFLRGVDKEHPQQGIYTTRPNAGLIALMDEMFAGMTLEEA
Description: RecBCD inhibition via phage-restricted bacterial growth – absorbance, V66 E. coli, mutant T4 phage, counter-screen for AddAB inhibitor project, dose response (AID 492957). The format is functional, cell-based, Escherichia coli str. K-12 substr. MG1655.

Assay [2] can be described thus: Counterscreen for AddAB inhibitors: absorbance-based bacterial cell-based high throughput dose response assay for inhibitors of bacterial viability. [Related pubchem assays (depositor defined):AID435030, AID449728, AID449731, AID488942, AID488955, AID488956]. Type of assay: functional.
A further assay in a line: cells. Type of assay: functional.
In assay [3] the target is Cyclin-dependent kinase 5/CDK5 activator 1 (Homo sapiens, UniProt Q00535). Description: blockade of human CDK5 activity – biochemical, cherry-picked samples, set 2, dose response (AID 504545).
Chain of Cyclin-dependent kinase 5/CDK5 activator 1 (Q00535 whole entry, the tested form may be a part): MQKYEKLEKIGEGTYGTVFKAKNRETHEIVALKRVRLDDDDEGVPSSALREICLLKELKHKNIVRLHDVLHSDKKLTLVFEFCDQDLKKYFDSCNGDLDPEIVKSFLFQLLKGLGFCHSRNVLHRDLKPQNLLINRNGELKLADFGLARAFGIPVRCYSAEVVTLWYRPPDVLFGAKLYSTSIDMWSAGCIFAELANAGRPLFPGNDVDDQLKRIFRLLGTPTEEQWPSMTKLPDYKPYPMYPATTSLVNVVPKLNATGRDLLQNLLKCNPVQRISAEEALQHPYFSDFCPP
Chain of Cyclin-dependent kinase 5/CDK5 activator 1 (Q15078 whole entry, further chain, the tested form may be a part): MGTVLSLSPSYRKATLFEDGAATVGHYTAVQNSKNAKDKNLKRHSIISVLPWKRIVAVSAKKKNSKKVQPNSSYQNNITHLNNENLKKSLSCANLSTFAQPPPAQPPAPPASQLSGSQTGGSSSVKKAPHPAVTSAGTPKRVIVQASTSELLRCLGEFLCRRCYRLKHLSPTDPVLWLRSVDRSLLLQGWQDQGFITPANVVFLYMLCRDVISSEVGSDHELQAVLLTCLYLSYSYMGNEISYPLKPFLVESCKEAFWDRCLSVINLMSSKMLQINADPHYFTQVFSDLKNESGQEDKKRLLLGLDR
Assay [4] can be described thus: viability loss in CEM21 cells – cell-based, CellTiter-Glo luminescence, cherry-picked, cytotoxicity control for viral fusion inhibitor project, dose response (AID 652042).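 Note: potency for signal decrease meaning cytotoxicity.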 The format is functional. In general terms: Cellular ATP, detected with luciferase, serves as a proxy for viable cell number.
Assay [5] deals with Dual specificity tyrosine-phosphorylation-regulated kinase 1A (Rattus norvegicus, UniProt Q63470). Type of assay: biochemical, Homo sapiens.
The nature of assay [6]: blockers of HIV-1 ZM109 envelope-driven cell-cell fusion – HeLa effector, CEM target cells, luciferase, cherry-pick, dose response (AID 652058).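 Note: luciferase signal from HIV-1 Env mediated cell-cell fusion of effector and target cells.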 Type of assay: functional, cell-based.
Assay [7] can be described thus: off-target signal loss in HeLa-CEM21 co-culture – HeLa F-luc CTL cells, cherry-picked, counter-screen for HIV-1 Env fusion inhibitor project, dose response (AID 652040).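 Note: potency for signal decrease marking cytotoxic or nonspecific inhibition.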 Type of assay: functional, cell-based.
The target in the next assay is Paired box protein Pax-8 (Homo sapiens, UniProt Q06710). Description: PAX8 transcriptional activity inhibition in RMG-I – RMG-I cells, luciferase, cherry-pick, dose response (AID 687027).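 Note: luciferase reporter driven by Pax8 target thyroperoxidase promoter measured by SteadyGlo luminescence.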 Type of assay: functional, cell-based.
Chain of Paired box protein Pax-8 (Q06710 whole entry, the tested form may be a part): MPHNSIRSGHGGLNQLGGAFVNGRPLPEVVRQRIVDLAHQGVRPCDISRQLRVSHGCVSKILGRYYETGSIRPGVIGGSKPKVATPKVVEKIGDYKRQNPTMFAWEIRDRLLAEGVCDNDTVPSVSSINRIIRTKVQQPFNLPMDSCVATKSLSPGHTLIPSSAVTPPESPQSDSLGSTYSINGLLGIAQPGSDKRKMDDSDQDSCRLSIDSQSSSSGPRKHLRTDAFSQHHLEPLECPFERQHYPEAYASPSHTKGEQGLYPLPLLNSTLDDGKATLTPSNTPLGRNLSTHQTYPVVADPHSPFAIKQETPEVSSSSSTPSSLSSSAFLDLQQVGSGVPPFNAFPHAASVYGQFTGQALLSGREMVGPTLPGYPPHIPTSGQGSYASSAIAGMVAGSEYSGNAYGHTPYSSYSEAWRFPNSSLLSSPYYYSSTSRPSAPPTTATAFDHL
The nature of assay [8]: HIV-1 AD8 envelope cell-cell fusion blockers – cherry-pick, dose response (AID 652062).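 Note: luciferase signal from cell-cell fusion driven by HIV-1 clade B AD8 Env; potency is for inhibitors of fusion seen as a drop in luminescence.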 The format is functional, cell-based.
The nature of assay [9]: blockers of HIV-1 envelope-mediated cell-cell fusion – cherry-pick, dose response (AID 652057). The format is functional, cell-based.

Calls of active or inactive are those of the source. Bounds are passed on as bounds.

`NC(=NOC(=O)c1ccc(Cl)cc1)c1ncc([N+](=O)[O-])s1`: in [1], the half-maximal cytotoxic concentration (CC50) was > 40000 nM (active). The IC50 on Exodeoxyribonuclease V was > 119000 nM (inactive); in assay [2], 118000 nM (inactive); in “cells” it was 19200 nM (active).

Take `N#Cc1c(N)n(C2OC(CO)C(O)C2O)c2ncnc(N)c12` (configuration not stated): the AC50 in assay [3] is 8580 nM (active); in assay [4], < 260 nM (active); in assay [5] it was 120 nM (active); in assay [6] it was 822 nM (active); in assay [7] it was 663 nM (active); at Paired box protein Pax-8 it was < 260 nM (active). Besides, the results for the AC50 in assay [8] and in assay [9] were 2860 nM (active) and 609 nM (active), respectively.
